Test results reported in patent US10499644B2, “Substituted oxadiazoles for combating phytopathogenic fungi” (BASF SE, priority 2015, dated 2019).

Experiments:
Puccinia recondita [1] = assay: Curative control of brown rust on wheat (glass house trial); format: in vivo, Puccinia recondita on wheat; settings: 63 ppm active compound, sprayed after inoculation, assessed after 8 days; untreated plants 90%
Experimental: (§1) The spray solutions were prepared in several steps: the stock solutions were prepared: a mixture of acetone and/or dimethylsulfoxide and the wetting agent/emulsifier Wettol, which is based on ethoxylated alkylphenoles, in a relation (volume) solvent-emulsifier of 99 to 1 was added to 25 mg of the compound to give a total of 5 ml. Water was then added to total volume of 100 ml. This stock solution was diluted with the described solvent-emulsifier-water mixture to the given concentration.
The first two developed leaves of pot-grown wheat seedling were dusted with spores of Puccinia recondita. To ensure the success the artificial inoculation, the plants were transferred to a humid chamber without light and a relative humidity of 95 to 99% and 20 to 24° C. for 24 hours. The next day the plants were cultivated for 3 days in a greenhouse chamber at 20 to 24° C. and a relative humidity between 65 and 70%. Then the plants were sprayed to run-off with an aqueous suspension, containing the concentration of active ingredient or their mixture as described below. The plants were allowed to air-dry. Then the trial plants were cultivated for 8 days in a greenhouse chamber at 20 to 24° C. and a relative humidity between 65 and 70%. The extent of fungal attack on the leaves was visually assessed as % diseased leaf area.

Puccinia recondita [2] = assay: Preventative control of brown rust on wheat (glass house trial); format: in vivo, Puccinia recondita on wheat; settings: 63 ppm active compound, sprayed 1 day before inoculation, assessed after 6 days; untreated plants 90%
Experimental: as §1
The first two developed leaves of pot-grown wheat seedling were sprayed to run-off with an aqueous suspension, containing the concentration of active ingredient or their mixture as described below. The next day the plants were inoculated with spores of Puccinia recondita. To ensure the success the artificial inoculation, the plants were transferred to a humid chamber without light and a relative humidity of 95 to 99% and 20 to 24° C. for 24 hours. Then the trial plants were cultivated for 6 days in a greenhouse chamber at 20 to 24° C. and a relative humidity between 65 and 70%. The extent of fungal attack on the leaves was visually assessed as % diseased leaf area.

`CC(=O)NC1(c2ccc(-c3noc(C(F)(F)F)n3)cc2)CC1` [Ex-2, N-[1-[4-[5-(trifluoromethyl)-1,2,4-oxadiazol-3-yl]phenyl]-cyclopropyl]acetamide] gave a diseased leaf area (Puccinia recondita [1]) of 1% and a diseased leaf area (Puccinia recondita [2]) of 2%.
